Source: ChEMBL document CHEMBL1152085, “Novel 3-deoxy-3-descladinosyl-6-O-methyl erythromycin a analogues. Synthesis and in vitro activity” (1997)
Converted amounts (≈) assume the structure as drawn.

Tests used:
Format in all cases: functional
[1] = tested on: Staphylococcus aureus; assay: Tested in vitro for minimum inhibitory concentration to produce antibacterial activity against Staphylococcus aureus A5177
[2] = tested on: Streptococcus equinus; assay: Tested in vitro for minimum inhibitory concentration to produce antibacterial activity against Streptococcus bovis A-5169 in presence of erythromycin A
[3] = tested on: Staphylococcus aureus; assay: Tested in vitro for minimum inhibitory concentration to produce antibacterial activity against Staphylococcus aureus A-5278 in presence of erythromycin A
[4] = tested on: Streptococcus pyogenes; assay: Tested in vitro for minimum inhibitory concentration to produce antibacterial activity against Streptococcus pyogenes EES61
[5] = tested on: Staphylococcus aureus; assay: Tested in vitro for minimum inhibitory concentration to produce antibacterial activity against Staphylococcus aureus CMX 642A
[6] = tested on: Staphylococcus aureus; assay: Tested in vitro for minimum inhibitory concentration to produce antibacterial activity against Staphylococcus aureus CMX 553
[7] = tested on: Streptococcus pyogenes; assay: Tested in vitro for minimum inhibitory concentration to produce antibacterial activity against Streptococcus pyogenes 930 in presence of erythromycin A
[8] = tested on: Escherichia coli; assay: Tested in vitro for minimum inhibitory concentration to produce antibacterial activity against Escherichia coli JUHL in presence of erythromycin A
[9] = tested on: Staphylococcus aureus; assay: Tested in vitro for minimum inhibitory concentration to produce antibacterial activity against Staphylococcus aureus CMX 553 in presence of erythromycin A
[10] = tested on: Escherichia coli; assay: Tested in vitro for minimum inhibitory concentration to produce antibacterial activity against Escherichia coli SS
[11] = tested on: Staphylococcus aureus; assay: Tested in vitro for minimum inhibitory concentration to produce antibacterial activity against Staphylococcus aureus ATCC 6538P
[12] = tested on: Streptococcus agalactiae; assay: Tested in vitro for minimum inhibitory concentration to produce antibacterial activity against Streptococcus agalactiae CMX 508 in presence of erythromycin A
[13] = tested on: Escherichia coli; assay: Tested in vitro for minimum inhibitory concentration to produce antibacterial activity against Escherichia coli SS in presence of erythromycin A
[14] = tested on: Staphylococcus aureus; assay: Tested in vitro for minimum inhibitory concentration to produce antibacterial activity against Staphylococcus aureus NCTC-10649M in presence of erythromycin A
[15] = tested on: Staphylococcus aureus; assay: Tested in vitro for minimum inhibitory concentration to produce antibacterial activity against Staphylococcus aureus 1775 in presence of erythromycin A
[16] = tested on: Streptococcus pyogenes; assay: Tested in vitro for minimum inhibitory concentration to produce antibacterial activity against Streptococcus pyogenes PIU 2548 in presence of erythromycin A
[17] = tested on: Enterococcus faecium; assay: Tested in vitro for minimum inhibitory concentration to produce antibacterial activity against Enterococcus faecium ATCC 8043 in presence of erythromycin A
[18] = tested on: Staphylococcus epidermidis; assay: Tested in vitro for minimum inhibitory concentration to produce antibacterial activity against Staphylococcus epidermidis 3519
[19] = tested on: Escherichia coli; assay: Tested in vitro for minimum inhibitory concentration to produce antibacterial activity against Escherichia coli JUHL
[20] = tested on: Streptococcus pyogenes; assay: Tested in vitro for minimum inhibitory concentration to produce antibacterial activity against Streptococcus pyogenes PIU 2548
[21] = tested on: Enterococcus faecium; assay: Tested in vitro for minimum inhibitory concentration to produce antibacterial activity against Enterococcus faecium ATCC 8043
[22] = tested on: Staphylococcus aureus; assay: Tested in vitro for minimum inhibitory concentration to produce antibacterial activity against Staphylococcus aureus A5177 in presence of erythromycin A
[23] = tested on: Streptococcus pyogenes; assay: Tested in vitro for minimum inhibitory concentration to produce antibacterial activity against Streptococcus pyogenes 930
[24] = tested on: Staphylococcus aureus; assay: Tested in vitro for minimum inhibitory concentration to produce antibacterial activity against Staphylococcus aureus NCTC-10649M
[25] = tested on: Streptococcus agalactiae; assay: Tested in vitro for minimum inhibitory concentration to produce antibacterial activity against Streptococcus agalactiae CMX 508
[26] = tested on: Staphylococcus aureus; assay: Tested in vitro for minimum inhibitory concentration to produce antibacterial activity against Staphylococcus aureus A-5278
[27] = tested on: Staphylococcus aureus; assay: Tested in vitro for minimum inhibitory concentration to produce antibacterial activity against Staphylococcus aureus ATCC 6538P in presence of erythromycin A
[28] = tested on: Streptococcus equinus; assay: Tested in vitro for minimum inhibitory concentration to produce antibacterial activity against Streptococcus bovis A-5169
[29] = tested on: Staphylococcus aureus; assay: Tested in vitro for minimum inhibitory concentration to produce antibacterial activity against Staphylococcus aureus 1775
[30] = tested on: Staphylococcus epidermidis; assay: Tested in vitro for minimum inhibitory concentration to produce antibacterial activity against Staphylococcus epidermidis 3519 in presence of erythromycin A
[31] = tested on: Staphylococcus aureus; assay: Tested in vitro for minimum inhibitory concentration to produce antibacterial activity against Staphylococcus aureus CMX 642A in presence of erythromycin A
[32] = tested on: Streptococcus pyogenes; assay: Tested in vitro for minimum inhibitory concentration to produce antibacterial activity against Streptococcus pyogenes EES61 in presence of erythromycin A

SMILES | MIC [1] | MIC [2] | MIC [3] | MIC [4] | MIC [5] | MIC [6] | MIC [7] | MIC [8] | MIC [9] | MIC [10] | MIC [11] | MIC [12] | MIC [13] | MIC [14] | MIC [15] | MIC [16] | MIC [17] | MIC [18] | MIC [19] | MIC [20] | other results
CC[C@H]1OC(=O)[C@H](C)[C@@H](OC(=S)SC)[C@H](C)[C@@H](O[C@@H]2O[C@H](C)C[C@H](N(C)C)[C@H]2O)[C@](C)(OC)C[C@@H](C)C(=O)[C@H](C)[C@@H](O)[C@]1(C)O | 25 µg/mL (≈ 36.8 µM) | 0.02 µg/mL | > 100 µg/mL | 0.78 µg/mL (≈ 1.15 µM) | 25 µg/mL (≈ 36.8 µM) | 25 µg/mL (≈ 36.8 µM) | > 100 µg/mL | 50 µg/mL | 0.2 µg/mL | 0.39 µg/mL (≈ 0.574 µM) | 25 µg/mL (≈ 36.8 µM) | 0.02 µg/mL | 0.2 µg/mL | 0.2 µg/mL | > 100 µg/mL | 6.2 µg/mL | 0.05 µg/mL | 25 µg/mL (≈ 36.8 µM) | > 100 µg/mL | 1.56 µg/mL (≈ 2.29 µM) | MIC [21]: 6.2 µg/mL (≈ 9.12 µM); MIC [22]: 3.1 µg/mL; MIC [23]: 100 µg/mL (≈ 147 µM); MIC [24]: 12.5 µg/mL (≈ 18.4 µM); MIC [25]: 0.78 µg/mL (≈ 1.15 µM); MIC [26]: > 100 µg/mL; MIC [27]: 0.2 µg/mL; MIC [28]: 0.39 µg/mL (≈ 0.574 µM); MIC [29]: > 100 µg/mL; MIC [30]: 0.2 µg/mL; MIC [31]: 0.2 µg/mL; MIC [32]: 0.02 µg/mL
CC[C@H]1OC(=O)[C@H](C)[C@@H](O[C@H]2C[C@@](C)(OC)[C@@H](O)[C@H](C)O2)[C@H](C)[C@@H](O[C@@H]2O[C@H](C)C[C@H](N(C)C)[C@H]2O)[C@](C)(OC)C[C@@H](C)C(=O)[C@H](C)[C@@H](O)[C@]1(C)O [CLARITHROMYCIN] | 1.56 µg/mL (≈ 2.09 µM) | 0.01 µg/mL | > 100 µg/mL | 0.01 µg/mL (≈ 0.0134 µM) | 0.03 µg/mL (≈ 0.0401 µM) | 0.12 µg/mL (≈ 0.16 µM) | > 100 µg/mL | 50 µg/mL | 0.12 µg/mL | 0.39 µg/mL (≈ 0.521 µM) | 0.2 µg/mL (≈ 0.267 µM) | 0.02 µg/mL | 0.39 µg/mL | 0.03 µg/mL | > 100 µg/mL | 8 µg/mL | 0.05 µg/mL | 0.12 µg/mL (≈ 0.16 µM) | 100 µg/mL (≈ 134 µM) | 8 µg/mL (≈ 10.7 µM) | MIC [21]: 0.05 µg/mL (≈ 0.0668 µM); MIC [22]: 3.1 µg/mL; MIC [23]: > 100 µg/mL; MIC [24]: 0.03 µg/mL (≈ 0.0401 µM); MIC [25]: 0.02 µg/mL (≈ 0.0267 µM); MIC [26]: > 100 µg/mL; MIC [27]: 0.2 µg/mL; MIC [28]: 0.01 µg/mL (≈ 0.0134 µM); MIC [29]: > 100 µg/mL; MIC [30]: 0.03 µg/mL; MIC [31]: 0.03 µg/mL; MIC [32]: 0.01 µg/mL
CC[C@H]1OC(=O)[C@H](C)C[C@H](C)[C@@H](O[C@@H]2O[C@H](C)C[C@H](N(C)C)[C@H]2O)[C@](C)(OC)C[C@@H](C)C(=O)[C@H](C)[C@@H](O)[C@]1(C)O | 25 µg/mL (≈ 43.6 µM) | 0.02 µg/mL | > 100 µg/mL | 1.56 µg/mL (≈ 2.72 µM) | 25 µg/mL (≈ 43.6 µM) | 25 µg/mL (≈ 43.6 µM) | > 100 µg/mL | 50 µg/mL | 0.2 µg/mL | 0.78 µg/mL (≈ 1.36 µM) | 25 µg/mL (≈ 43.6 µM) | 0.02 µg/mL | 0.1 µg/mL | 0.2 µg/mL | > 100 µg/mL | 6.2 µg/mL | 0.05 µg/mL | 50 µg/mL (≈ 87.1 µM) | > 100 µg/mL | 3.1 µg/mL (≈ 5.4 µM) | MIC [21]: 25 µg/mL (≈ 43.6 µM); MIC [22]: 1.56 µg/mL; MIC [23]: > 100 µg/mL; MIC [24]: 6.2 µg/mL (≈ 10.8 µM); MIC [25]: 3.1 µg/mL (≈ 5.4 µM); MIC [26]: > 100 µg/mL; MIC [27]: 0.1 µg/mL; MIC [28]: 0.78 µg/mL (≈ 1.36 µM); MIC [29]: > 100 µg/mL; MIC [30]: 0.1 µg/mL; MIC [31]: 0.2 µg/mL; MIC [32]: 0.02 µg/mL
CC[C@H]1OC(=O)[C@H](C)C[C@H](C)[C@@H](O[C@@H]2O[C@H](C)C[C@H](N(C)C)[C@H]2O)[C@](C)(OC)C[C@@H](C)/C(=N\O)[C@H](C)[C@@H](O)[C@]1(C)O | 25 µg/mL (≈ 42.5 µM) | 0.05 µg/mL | > 100 µg/mL | 0.78 µg/mL (≈ 1.32 µM) | 12.5 µg/mL (≈ 21.2 µM) | 12.5 µg/mL (≈ 21.2 µM) | > 100 µg/mL | 50 µg/mL | 0.2 µg/mL | 0.78 µg/mL (≈ 1.32 µM) | 12.5 µg/mL (≈ 21.2 µM) | 0.01 µg/mL | 0.2 µg/mL | 0.2 µg/mL | > 100 µg/mL | 6.2 µg/mL | 0.05 µg/mL | 12.5 µg/mL (≈ 21.2 µM) | > 100 µg/mL | 1.56 µg/mL (≈ 2.65 µM) | MIC [21]: 3.1 µg/mL (≈ 5.27 µM); MIC [22]: 3.1 µg/mL; MIC [23]: > 100 µg/mL; MIC [24]: 12.5 µg/mL (≈ 21.2 µM); MIC [25]: 0.78 µg/mL (≈ 1.32 µM); MIC [26]: > 100 µg/mL; MIC [27]: 0.2 µg/mL; MIC [28]: 0.78 µg/mL (≈ 1.32 µM); MIC [29]: > 100 µg/mL; MIC [30]: 0.2 µg/mL; MIC [31]: 0.2 µg/mL; MIC [32]: 0.01 µg/mL
CCO/N=C1\[C@H](C)C[C@@](C)(OC)[C@H](O[C@@H]2O[C@H](C)C[C@H](N(C)C)[C@H]2O)[C@@H](C)C[C@@H](C)C(=O)O[C@H](CC)[C@@](C)(O)[C@H](O)[C@H]1C | 25 µg/mL (≈ 40.5 µM) | 0.01 µg/mL | > 100 µg/mL | 3.1 µg/mL (≈ 5.03 µM) | 50 µg/mL (≈ 81.1 µM) | 50 µg/mL (≈ 81.1 µM) | > 100 µg/mL | 25 µg/mL | 0.39 µg/mL | 3.1 µg/mL (≈ 5.03 µM) | 25 µg/mL (≈ 40.5 µM) | 0.1 µg/mL | 0.2 µg/mL | 0.39 µg/mL | > 100 µg/mL | 3.1 µg/mL | 0.05 µg/mL | 25 µg/mL (≈ 40.5 µM) | > 100 µg/mL | 25 µg/mL (≈ 40.5 µM) | MIC [21]: 25 µg/mL (≈ 40.5 µM); MIC [22]: 3.1 µg/mL; MIC [23]: > 100 µg/mL; MIC [24]: 12.5 µg/mL (≈ 20.3 µM); MIC [25]: 3.1 µg/mL (≈ 5.03 µM); MIC [26]: > 100 µg/mL; MIC [27]: 0.39 µg/mL; MIC [28]: 3.1 µg/mL (≈ 5.03 µM); MIC [29]: > 100 µg/mL; MIC [30]: 0.39 µg/mL; MIC [31]: 0.39 µg/mL; MIC [32]: 0.02 µg/mL
